Reference: paper PMC8042770, “Odorant Receptors for Detecting Flowering Plant Cues Are Functionally Conserved across Moths and Butterflies” (Molecular Biology and Evolution, 2020)
“Also recorded” adds a separate entry of the source. Like-named read-outs stand apart in the source and are kept apart here. Blank lines part the entries; values can stand above or below the molecule they belong to.

How the values were obtained:
[1] = biological target: HarmOR59 (Helicoverpa armigera, UniProt A0A7T3KAU6); assay: Xenopus oocyte two-electrode voltage clamp, HarmOR59 + Orco; format: cell-based
Procedure: (§1) In order to expand our analysis on the response properties of HarmORs, we conducted dose–response analyses for the 28 functional HarmORs. […] Six HarmORs (OR3, 22, 48, 50, 56, and 66) could not be activated by any ligand at 10^−5 M. For the other 22 HarmORs, dose–response curves were generated and EC50 values of their major ligands were calculated (fig. 2A and supplementary table S2, Supplementary Material online). The HarmOR repertoire was highly efficient in terpene detection, since the lowest EC50 values were obtained for such compounds. Many of these terpenes have been proposed to be defensive chemicals of plants. […] DMNT is also one of the oviposition deterring compounds found in larval frass of some Lepidoptera species such as S. littoralis ([Anderson et al. 1993]).
(§2) Functional characterization of individual ORs was performed by heterologous expression in Xenopus oocytes combined with a two-electrode voltage-clamp system ([Wang et al. 2010]). Briefly, the full-length gene of each OR and Orco were subcloned into the eukaryotic expression vector pT7TS. cRNAs were generated from linearized expression vectors using the mMESSAGE mMACHINE T7 kit (Ambion, Austin, TX). Then, the cRNA mixture of ORx and Orco (27.6 ng each) was injected (Nanoliter 2010, WPI Inc., Sarasota, FL) into oocytes (stage V–VII). The respective Orcos of different species were used for functional studies of OR42 orthologs except for the four butterfly species (V. tameamea, P. xuthus, D. plexippus, and P. rapae), in which we used the Orco from P. xuthus. After incubation in nutrient solution at 18 °C for 3–5 days, the response profile of each oocyte to multiple plant odorants was recorded via a two-electrode voltage clamp (OC-725C oocyte clamp, Warner Instruments, Hamden, CT) at a holding potential of −80 mV. Data were acquired by using a Digidata 1440 A and were analyzed by pCLAMP 10.2 software (Axon Instruments Inc., Union City, CA).
(§3) Stock solutions of each odorant were prepared at 1 M using DMSO as a solvent, and each odorant was diluted in 1× Ringer’s solution to the indicated concentrations for electrophysiological recording. For functional screening of each HarmOR, a panel of 67 odorants belonging to three types of chemical classes: terpenes, aromatics, and aliphatics (short-chain fatty acid) were used (supplementary table S1, Supplementary Material online). For functional studies of OR42 orthologs from different species, six odorants including PAA, benzaldehyde, (E)-2-hexen-1-al, cinnamaldehyde, 2-phenylethanol, and heptanal were used.

[2] = biological target: HarmOR42 (Helicoverpa armigera, UniProt A0A7T3KAF6); assay: Xenopus oocyte two-electrode voltage clamp, HarmOR42 + Orco; format: cell-based; details: 67 odorants at 10^−4 M
Description: In preliminary screening, we used a high dosage (10^−4 M) of odorants. […] Most functional ORs responded robustly to multiple odorants. The strongest response (up to ∼6,000 nanoampere, nA) we detected was that of HarmOR42 toward the aromatic compound PAA. Further, the response profiles of the 28 HarmORs appeared to be highly differentiated, with no apparent overlap in their tuning spectra (with the exception of HarmOR12 and 36) according to functional cluster analysis (fig. 1A).
as §1, §2, §3

[3] = test system: HarmOR42 orthologs from 11 lepidopteran species; assay: Xenopus oocyte voltage clamp of HarmOR42 orthologs, six-odorant screen; format: cell-based; details: six compounds at 10^−4 M; 11 species
Description: We gathered additional experimental evidence to support this conservation of a PAA-sensing function by performing in vitro functional characterization of HarmOR42 orthologs from 11 lepidopteran species belonging to eight families (fig. 5B). […] It should be noted that the species studied here included three Noctuidae species (H. armigera, H. assulta, and Mythimna separata), four moths from Bombycidae (Bombyx mori), Crambidae (Chilo suppressalis), Sphingidae (Manduca sexta), and Tortricidae (Grapholitha molesta) ([Mitter et al. 2017]; [Kawahara et al. 2019]), and four diurnal butterfly species from diverse families (Vanessa tameamea, Papilio xuthus, Danaus plexippus, and Pieris rapae) (fig. 5B). […]
(§4) Functional characterization of individual ORs was performed by heterologous expression in Xenopus oocytes combined with a two-electrode voltage-clamp system ([Wang et al. 2010]). […] After incubation in nutrient solution at 18 °C for 3–5 days, the response profile of each oocyte to multiple plant odorants was recorded via a two-electrode voltage clamp (OC-725C oocyte clamp, Warner Instruments, Hamden, CT) at a holding potential of −80 mV. Data were acquired by using a Digidata 1440 A and were analyzed by pCLAMP 10.2 software (Axon Instruments Inc., Union City, CA). […]

[4] = test system: EsemOR19; assay: Xenopus oocyte voltage clamp of EsemOR19; format: cell-based, Eriocrania semipurpurella; details: 10^−4 M
Description: We also examined the response profile of EsemOR19 from E. semipurpurella, an OR that falls close to the HarmOR42-defined clade but that is not considered as a HarmOR42 ortholog. […] We also characterized the function of RnubOR13 from R. nubila (Trichoptera), a species from a sister order of Lepidoptera. […] Unfortunately, the putative E. semipurpurella OR that would consist of EsemOR34 + 35 and that falls at the base of the HarmOR42 clade could not be tested as it is incomplete.
Full-length coding sequences of 45 ORs (including Orco) of H. armigera, and OR42 and Orco orthologs in B. mori, H. assulta, G. molesta, and M. separate were amplified from the antennal cDNA of each species adults by PCR with specific primer pairs of each gene. […]
as §4

[5] = test system: H. armigera moth antennae; assay: Electroantennography (EAG), wild-type vs HarmOR42 knock-out moths; format: in vivo, Helicoverpa armigera; details: single odorants, 1 μg
Description: We next conducted a loss-of-function study by generating a HarmOR42-lacking H. armigera strain by CRISPR/Cas9 targeting the first coding exon. Homozygous mutants were obtained with a large segment deletion of 203 bp and a 6-bp nonhomologous insertion in the genome (fig. 6B), introducing a premature stop codon in the coding sequence. […] The most likely hypothesis is that HarmOR42 is not the major receptor for sensing this compound in H. armigera. As a control, we tested the response of male moths to the sex pheromone component Z11-16: Ald that is not a ligand of HarmOR42. As expected, we observed no difference between the EAG responses of mutant and wild-type moths to this compound.
The antennae of 2- to 3-day-old virgin male and female moths were cut at the base of the flagellum. After removing the tip, one antenna was inserted between two glass electrodes filled with 0.1 M KCl solution. In each test, a 10-μl solution of each odorant was added onto a piece of filter paper (0.5 cm × 0.5 cm) and then inserted into a Pasteur pipette. About 100 ng/μl stock solutions of individual odorants and different doses of the mixture IAC were prepared with paraffin oil. A continuous airflow of 30 ml/s was produced by a stimulus controller (CS-55, Syntech, Kirchzarten, Germany). Odor stimulation was controlled by a puff of purified air (0.2 s at 10 ml/s airflow) from the CS-55. EAG signals were amplified with a 10× AC/DC headstage preamplifier (Syntech) and further acquired with an Intelligent Data Acquisition Controller (IDAC-4-USB, Syntech) ([Cao et al. 2016]). The signals were recorded, monitored, and analyzed using Syntech EAG-software (Syntech, Germany). The EAG response values for each compound were calculated by subtracting the value of the same antennae corresponding to a solvent blank of paraffin oil.

[6] = biological target: T1, HarmOR43 (Helicoverpa armigera, UniProt A0A7T3KAF8); assay: Xenopus oocyte two-electrode voltage clamp, HarmOR43 + Orco; format: cell-based; details: dose response in oocytes, unit M
T1 sequence (A0A7T3KAF8 1-415): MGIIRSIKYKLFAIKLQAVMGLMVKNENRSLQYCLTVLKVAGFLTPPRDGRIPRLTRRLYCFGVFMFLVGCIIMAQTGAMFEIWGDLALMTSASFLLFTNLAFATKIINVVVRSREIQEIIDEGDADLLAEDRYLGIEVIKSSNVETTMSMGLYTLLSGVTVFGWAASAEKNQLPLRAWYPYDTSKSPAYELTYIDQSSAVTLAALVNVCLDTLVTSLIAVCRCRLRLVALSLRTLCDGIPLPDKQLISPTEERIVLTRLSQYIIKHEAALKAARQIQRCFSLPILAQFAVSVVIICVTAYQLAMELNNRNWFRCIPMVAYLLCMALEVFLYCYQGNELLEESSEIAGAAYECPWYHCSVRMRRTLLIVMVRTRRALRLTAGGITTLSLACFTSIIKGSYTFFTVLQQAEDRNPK
Procedure: as §1
as §2, with “CA). […]” for “CA).”

[7] = biological target: HarmOR29 (Helicoverpa armigera, UniProt A0A7T3KAG0); assay: Xenopus oocyte two-electrode voltage clamp, HarmOR29 + Orco; format: cell-based; details: dose response in oocytes, unit M
Procedure: as §1, §4

[8] = biological target: HarmOR31 (Helicoverpa armigera, UniProt A0A7T3N2E9); assay: Xenopus oocyte two-electrode voltage clamp, HarmOR31 + Orco; format: cell-based
Description: In order to expand our analysis on the response properties of HarmORs, we conducted dose–response analyses for the 28 functional HarmORs. […] Many of these terpenes have been proposed to be defensive chemicals of plants.
Briefly, the full-length gene of each OR and Orco were subcloned into the eukaryotic expression vector pT7TS. cRNAs were generated from linearized expression vectors using the mMESSAGE mMACHINE T7 kit (Ambion, Austin, TX). […] The respective Orcos of different species were used for functional studies of OR42 orthologs except for the four butterfly species (V. tameamea, P. xuthus, D. plexippus, and P. rapae), in which we used the Orco from P. xuthus.
as §3

[9] = biological target: HarmOR67 (Helicoverpa armigera, UniProt A0A7T3KAH1); assay: Xenopus oocyte two-electrode voltage clamp, HarmOR67 + Orco; format: cell-based; details: dose response in oocytes, unit M
Procedure: as §1
as §2, with “CA). […]” for “CA).”

[10] = biological target: HarmOR10 (Helicoverpa armigera, UniProt A0A0G2RLT6); assay: Xenopus oocyte two-electrode voltage clamp, HarmOR10 + Orco; format: cell-based
Procedure: as §1, §4

[11] = biological target: T2, HarmOR19 (Helicoverpa armigera, UniProt A0A7T3N0J7); assay: Xenopus oocyte two-electrode voltage clamp, HarmOR19 + Orco; format: cell-based; details: dose response in oocytes, unit M
T2 sequence (A0A7T3N0J7 1-402): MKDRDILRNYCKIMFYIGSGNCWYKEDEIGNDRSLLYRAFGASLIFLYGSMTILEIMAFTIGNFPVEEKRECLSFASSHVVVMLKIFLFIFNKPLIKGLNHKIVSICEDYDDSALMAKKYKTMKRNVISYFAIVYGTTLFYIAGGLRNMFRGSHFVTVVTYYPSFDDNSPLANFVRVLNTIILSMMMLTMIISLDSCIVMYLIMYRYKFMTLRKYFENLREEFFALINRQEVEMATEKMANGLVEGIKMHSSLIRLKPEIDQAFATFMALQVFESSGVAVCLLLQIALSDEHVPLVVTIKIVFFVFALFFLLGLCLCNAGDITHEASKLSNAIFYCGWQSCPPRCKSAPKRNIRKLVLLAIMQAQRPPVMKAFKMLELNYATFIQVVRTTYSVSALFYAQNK
Procedure: as §1
as §2, with “CA). […]” for “CA).”

[12] = biological target: T3, HarmOR27 (Helicoverpa armigera, UniProt A0A7T3KAG1); assay: Xenopus oocyte two-electrode voltage clamp, HarmOR27 + Orco; format: cell-based
T3 sequence (A0A7T3KAG1 1-426): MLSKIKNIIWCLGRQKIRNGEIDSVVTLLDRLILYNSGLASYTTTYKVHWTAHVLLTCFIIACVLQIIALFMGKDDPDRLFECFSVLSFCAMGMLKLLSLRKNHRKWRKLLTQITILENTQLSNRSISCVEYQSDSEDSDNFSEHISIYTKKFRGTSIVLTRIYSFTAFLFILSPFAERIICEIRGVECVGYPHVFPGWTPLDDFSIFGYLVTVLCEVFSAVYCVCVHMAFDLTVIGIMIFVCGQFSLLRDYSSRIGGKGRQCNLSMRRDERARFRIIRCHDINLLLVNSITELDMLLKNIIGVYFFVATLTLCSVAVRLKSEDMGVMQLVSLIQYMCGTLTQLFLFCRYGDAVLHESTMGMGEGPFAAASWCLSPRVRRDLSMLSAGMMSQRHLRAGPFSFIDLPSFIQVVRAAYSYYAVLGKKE
Procedure: as §1, §2, §3

[13] = biological target: HarmOR35 (Helicoverpa armigera, UniProt A0A7T3N1A8); assay: Xenopus oocyte two-electrode voltage clamp, HarmOR35 + Orco; format: cell-based; details: HarmOR35; dose response in oocytes; unit M; read-out: EC50
Procedure: as §1, §4

Chain of HarmOR67 (A0A7T3KAH1 entry or part of it): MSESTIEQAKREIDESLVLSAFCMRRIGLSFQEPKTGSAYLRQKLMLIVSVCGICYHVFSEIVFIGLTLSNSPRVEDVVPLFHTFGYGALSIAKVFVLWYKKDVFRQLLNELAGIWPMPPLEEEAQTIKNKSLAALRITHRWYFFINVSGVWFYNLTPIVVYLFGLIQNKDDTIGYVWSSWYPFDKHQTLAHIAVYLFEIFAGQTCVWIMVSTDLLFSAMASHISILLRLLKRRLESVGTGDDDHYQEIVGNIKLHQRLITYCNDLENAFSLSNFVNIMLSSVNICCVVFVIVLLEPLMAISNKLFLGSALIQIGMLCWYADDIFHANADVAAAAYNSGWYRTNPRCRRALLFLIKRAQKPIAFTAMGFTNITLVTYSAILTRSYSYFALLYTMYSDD
Chain of HarmOR31 (A0A7T3N2E9 entry or part of it): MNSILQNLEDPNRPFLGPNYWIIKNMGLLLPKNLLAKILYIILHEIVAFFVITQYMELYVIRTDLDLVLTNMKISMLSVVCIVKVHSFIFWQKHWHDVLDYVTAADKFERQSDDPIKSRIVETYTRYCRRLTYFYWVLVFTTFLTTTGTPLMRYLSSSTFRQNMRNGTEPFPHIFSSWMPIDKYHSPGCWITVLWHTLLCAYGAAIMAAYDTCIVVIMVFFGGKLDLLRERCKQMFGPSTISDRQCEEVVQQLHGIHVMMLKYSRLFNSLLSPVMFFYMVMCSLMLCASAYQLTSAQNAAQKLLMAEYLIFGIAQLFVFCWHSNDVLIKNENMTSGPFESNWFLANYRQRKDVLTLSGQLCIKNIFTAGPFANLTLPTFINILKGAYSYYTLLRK
Chain of HarmOR42 (A0A7T3KAF6 entry or part of it): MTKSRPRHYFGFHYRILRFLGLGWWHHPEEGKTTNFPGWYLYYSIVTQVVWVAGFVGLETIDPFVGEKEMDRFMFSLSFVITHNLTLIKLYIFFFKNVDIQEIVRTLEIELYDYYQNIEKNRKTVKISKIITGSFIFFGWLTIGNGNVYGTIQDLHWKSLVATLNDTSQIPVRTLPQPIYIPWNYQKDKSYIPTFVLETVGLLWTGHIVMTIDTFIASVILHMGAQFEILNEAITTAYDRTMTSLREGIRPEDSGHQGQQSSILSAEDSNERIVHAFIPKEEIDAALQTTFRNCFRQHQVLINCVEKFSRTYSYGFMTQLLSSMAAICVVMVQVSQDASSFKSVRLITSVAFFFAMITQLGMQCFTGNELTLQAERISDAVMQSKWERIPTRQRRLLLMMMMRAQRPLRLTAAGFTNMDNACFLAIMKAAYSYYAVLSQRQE
Chain of HarmOR59 (A0A7T3KAU6 entry or part of it): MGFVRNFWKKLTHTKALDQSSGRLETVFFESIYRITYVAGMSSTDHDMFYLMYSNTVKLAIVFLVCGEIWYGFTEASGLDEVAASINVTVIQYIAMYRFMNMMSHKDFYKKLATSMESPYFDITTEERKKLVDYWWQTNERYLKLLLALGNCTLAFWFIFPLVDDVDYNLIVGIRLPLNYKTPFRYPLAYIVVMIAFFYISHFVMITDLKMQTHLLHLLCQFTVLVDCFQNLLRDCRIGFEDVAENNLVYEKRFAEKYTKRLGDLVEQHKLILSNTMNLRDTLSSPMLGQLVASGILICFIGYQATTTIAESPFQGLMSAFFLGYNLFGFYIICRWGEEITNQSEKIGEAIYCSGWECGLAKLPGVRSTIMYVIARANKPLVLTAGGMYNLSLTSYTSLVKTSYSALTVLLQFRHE
Chain of HarmOR10 (A0A0G2RLT6 1-390): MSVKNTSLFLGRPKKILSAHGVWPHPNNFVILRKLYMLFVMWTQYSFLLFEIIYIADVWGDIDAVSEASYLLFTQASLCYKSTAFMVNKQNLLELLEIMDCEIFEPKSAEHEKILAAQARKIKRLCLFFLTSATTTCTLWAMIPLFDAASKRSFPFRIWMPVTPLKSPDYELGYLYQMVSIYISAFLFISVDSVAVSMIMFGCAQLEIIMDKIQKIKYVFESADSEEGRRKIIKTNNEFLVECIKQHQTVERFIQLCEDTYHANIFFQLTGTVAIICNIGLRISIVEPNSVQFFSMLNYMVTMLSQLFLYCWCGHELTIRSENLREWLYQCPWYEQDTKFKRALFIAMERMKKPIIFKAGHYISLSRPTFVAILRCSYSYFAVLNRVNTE
Chain of HarmOR29 (A0A7T3KAG0 1-395): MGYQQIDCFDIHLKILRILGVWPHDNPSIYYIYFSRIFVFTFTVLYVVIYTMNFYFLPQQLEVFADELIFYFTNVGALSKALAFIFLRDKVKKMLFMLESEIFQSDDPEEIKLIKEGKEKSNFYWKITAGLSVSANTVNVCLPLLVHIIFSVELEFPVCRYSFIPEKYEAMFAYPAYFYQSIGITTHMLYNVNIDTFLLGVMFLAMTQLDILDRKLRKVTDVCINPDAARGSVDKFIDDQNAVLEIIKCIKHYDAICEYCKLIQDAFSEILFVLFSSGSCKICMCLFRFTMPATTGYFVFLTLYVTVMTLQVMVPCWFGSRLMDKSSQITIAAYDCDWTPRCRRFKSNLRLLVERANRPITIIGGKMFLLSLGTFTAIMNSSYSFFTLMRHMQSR
Chain of HarmOR35 (A0A7T3N1A8 entry or part of it): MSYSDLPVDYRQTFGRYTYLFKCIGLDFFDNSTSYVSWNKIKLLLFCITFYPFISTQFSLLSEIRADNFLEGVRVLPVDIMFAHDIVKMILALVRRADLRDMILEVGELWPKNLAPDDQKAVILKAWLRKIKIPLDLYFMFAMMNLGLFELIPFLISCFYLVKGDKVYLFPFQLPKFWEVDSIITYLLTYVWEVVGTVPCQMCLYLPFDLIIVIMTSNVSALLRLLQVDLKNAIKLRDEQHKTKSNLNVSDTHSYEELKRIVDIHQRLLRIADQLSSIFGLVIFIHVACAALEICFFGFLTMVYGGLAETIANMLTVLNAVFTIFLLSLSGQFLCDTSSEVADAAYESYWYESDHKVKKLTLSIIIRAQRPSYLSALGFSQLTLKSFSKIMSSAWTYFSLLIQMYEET

Compound: O=C/C=C/c1ccccc1 [Cinnamaldehyde]
EC50 [1]: 1.72 µM | ligand tuning of HarmOR42 [2]: minor ligands | ligand tuning of HarmOR42 orthologs [3]: minor ligands | response of EsemOR19 [4]: very weak current; also recorded: responded | EAG response of HarmOR42 knock-out mutants compared with wild-type moths [5]: significantly decreased

Compound: COC(=O)c1ccc(O)cc1 [Methyl 4-hydroxybenzoate]
EC50 [6]: 19.6 µM | EC50 [7]: 178 µM

EC50 ([8]; HarmOR31, dose response in oocytes, unit M, read-out: EC50): 96.1 µM | EC50 [9]: 33.1 µM
Compound: CCCCCCCCO [1-Octanol]

Compound: O=Cc1ccccc1 [Benzaldehyde]
EC50 [1]: 12 µM | EC50 [10]: 124 µM | ligand tuning of HarmOR10 ([10]; 67 odorants at 10^−4 M): specific ligand

EC50 [9]: 302 µM | ligand tuning of HarmOR42 [2]: minor ligands
Compound: CCCCCCC=O [Heptanal]
EAG response of HarmOR42 knock-out mutants compared with wild-type moths [5]: significantly decreased

Compound: CCc1ccc(C(C)=O)cc1 [4'-Ethylacetophenone]
EC50 [11]: 16.7 µM

Compound: CCOC(=O)c1ccccc1 [Ethyl benzoate]
EC50 [8]: 13.2 µM | EC50 [12]: 68.7 µM | EC50 [11]: 60.2 µM

EC50 [9]: 218 µM
Compound: CCCCCCCO [1-Heptanol]

Compound: COC(=O)c1ccccc1 [Methyl benzoate]
EC50 [12]: 13.1 µM | EC50 [6]: 15.5 µM

Compound: CCCCOC(=O)c1ccccc1O [Butyl salicylate]
response of HarmOR27 ([12]; odorant 10^−4 M): maximal response | response of HarmOR27 ([12]; odorant 10^−5 M): failed to evoke any current | EC50 [11]: 402 µM

EC50 [13]: 255 µM
Compound: CC1(C)[C@H]2CC=C(C=O)[C@@H]1C2 [(1R)-(-)-Myrtenal]

Compound: COC(=O)c1ccccc1O [Methyl salicylate]
EC50 [12]: 15.6 µM | EC50 [6]: 15.8 µM
